What was measured:
Assay type in all cases: in vivo
[1] = test system: Beet Armyworm (Spodoptera exigua, LAPHEG) second instar larvae; assay: Bioassay on Beet Armyworm (BAW), 128-well diet tray assay; conditions: Beet Armyworm, Table ABC Biological Results, read-out: BAW rating
Procedure, shortened: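 Second-instar larvae, one to five per well, on artificial diet surface-treated with 50 μg/cm^2 compound in acetone-water, dried; eight wells per compound. Held 25 °C, 14:10 light-dark, five to seven days; percent mortality averaged over wells.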

[2] = test system: Cabbage Looper (Trichoplusia ni, TRIPNI) second instar larvae; assay: Bioassay on Cabbage Looper (CL), 128-well diet tray assay; conditions: Cabbage Looper, Table ABC Biological Results, read-out: CL rating
Procedure, shortened: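 Second instar larvae (1–5 per well) on artificial diet surface-treated with 50 μg/cm² compound in 90:10 acetone-water, eight wells per compound. Held 5–7 days at 25 °C, 14:10 light-dark; percent mortality averaged across wells.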

[3] = test system: Green Peach Aphid (Myzus persicae, MYZUPE); assay: Bioassay on Green Peach Aphid (GPA), foliar spray on cabbage seedlings; conditions: Table ABC Biological Results
Experimental: Certain molecules disclosed in this document were tested against GPA using procedures described in the following example. In the reporting of the results, the “GPA & YFM Rating Table” was used (See Table Section). Cabbage seedlings grown in 3-inch pots, with 2-3 small (3-5 cm) true leaves, were used as test substrate. The seedlings were infested with 20-50 GPA (wingless adult and nymph stages) one day prior to chemical application. Four pots with individual seedlings were used for each treatment. Test molecules (2 mg) were dissolved in 2 mL of acetone/methanol (1:1) solvent, forming stock solutions of 1000 ppm test molecule. The stock solutions were diluted 5× with 0.025% Tween 20 in water to obtain the solution at 200 ppm test molecule. A hand-held aspirator-type sprayer was used for spraying a solution to both sides of […] leaves until runoff. Reference plants (solvent check) were sprayed with the diluent only containing 20% by volume of acetone/methanol (1:1) solvent. Treated plants were held in a holding room for three days at approximately 25° C. and ambient relative humidity (RH) prior to grading. […] Percent Control was measured by using Abbott's correction formula (W. S. Abbott, “A Method of Computing the Effectiveness of an Insecticide” J. Econ. Entomol. 18 (1925), pp. 265-267) as follows. […]

[4] = test system: Yellow Fever Mosquito (Aedes aegypti, AEDSAE) larvae; assay: Bioassay on Yellow Fever Mosquito (YFM), 96-well plate larval assay; conditions: Table ABC Biological Results
Experimental: Certain molecules disclosed in this document were tested against YFM using procedures described in the following paragraph. In the reporting of the results, the “GPA & YFM Rating Table” was used (See Table Section).
Master plates containing 400 μg of a molecule dissolved in 100 μL of dimethyl sulfoxide (DMSO) (equivalent to a 4000 ppm solution) are used. A master plate of assembled molecules contains 15 μL per well. To this plate, 135 μL of a 90:10 water:acetone mixture is added to each well. A robot (Biomek® NXP Laboratory Automation Workstation) is programmed to dispense 15 μL aspirations from the master plate into an empty 96-well shallow plate (“daughter” plate). There are 6 reps (“daughter” plates) created per master. The created daughter plates are then immediately infested with YFM larvae.
The day before plates are to be treated, mosquito eggs are placed in Millipore water containing liver powder to begin hatching (4 g. into 400 mL). After the daughter plates are created using the robot, they are infested with 220 μL of the liver powder/larval mosquito mixture (about 1 day-old larvae). After plates are infested with mosquito larvae, a non-evaporative lid is used to cover the plate to reduce drying. Plates are held at room temperature for 3 days prior to grading. After 3 days, each well is observed and scored based on mortality. The results are indicated in the table entitled “Table ABC: Biological Results” (See Table Section).

In the case of `C[C@H](NC(=O)CC(F)(F)F)NC(=O)c1ccc(/C(F)=C/C(c2cc(Cl)c(Br)c(Cl)c2)C(F)(F)F)cc1C(F)(F)F` (stereo partly drawn) [F31, 4-((Z)-3-(4-Bromo-3,5-dichlorophenyl)-1,4,4,4-tetrafluorobut-1-en-1-yl)-2-(trifluoromethyl)-N—((R)-1-(3,3,3-trifluoropropanamido)ethyl)benzamide], the pest or weed control at 50 µg/cm2 [1] is reported as 50 to 100%, the pest or weed control at 50 µg/cm2 [2] is reported as 50 to 100% and the GPA rating [3] is reported as “B (More than 0-Less than 80)”. The YFM rating [4] was “A (80-100)”.

With `C[C@H](NC(=O)CCC(F)(F)F)NC(=O)c1ccc(/C(F)=C/C(c2cc(Cl)c(F)c(Cl)c2)C(F)(F)F)cc1C(F)(F)F` (stereo partly drawn) [F17, 4-((Z)-3-(3,5-Dichloro-4-fluorophenyl)-1,4,4,4-tetrafluorobut-1-en-1-yl)-N—((R)-1-(4,4,4-trifluorobutanamido)ethyl)-2-(trifluoromethyl)benzamide] the pest or weed control at 50 µg/cm2 [1] was 50 to 100%, the pest or weed control at 50 µg/cm2 [2] was 50 to 100% and the GPA rating [3] was “B (More than 0-Less than 80)”. The YFM rating [4] was “A (80-100)”.
